Data on nine compounds can be found in paper PMC10403574, “Discovery of a pyrrole-pyridinimidazole derivative as novel SIRT6 inhibitor for sensitizing pancreatic cancer to gemcitabine” (Cell Death & Disease, 2023).

Structures are written as SMILES.

In assay [1] the target is T1, SIRT6 (Homo sapiens, UniProt Q8N6T7). The assay can be described thus: Fluor-De-Lys (FDL) SIRT6 deacetylation assay. Format: biochemical. Also on record: The human full-length SIRT6 gene was inserted into the prokaryotic expression vector (pET-28a (+)); inferred from the pET-28a(+) vector, Ni-NTA purification and Ni-NTA biosensor loading); made in house; host or cells: Escherichia coli BL21 (DE3). The following applies: fixed concentration of 25 μM, RHKK-Ac-AMC, NI = no inhibition; for inhibition at 25 µM: read-out: Inhibition rate (%). The procedure: The human full-length SIRT6 gene was inserted into the prokaryotic expression vector (pET-28a (+)). The verified recombinant plasmid was transformed into Escherichia coli BL21 (DE3) expression strain and cultured overnight at 37 °C on LB plates supplemented with 50 μg/mL kanamycin. Single colonies were inoculated in fluid kanamycin-containing LB mediums. It was shaken at 160 rpm for 16 h at 37 °C and transferred to kanamycin-containing LB medium at a ratio of 1:100. It was shaken at 160 rpm at 37 °C until the OD600 reached 0.6. The Isopropyl-β-d-thiogalactopyranoside was added to make the final concentration of solution 0.5 mmol/L, cultured for 15 °C and 160 rpm for 24 h.
Bacterial liquid was harvested at 12,000 rpm at 4 °C for 20 min, and then re-suspended in Lysis buffer (20 mmol/L Hepes pH 7.5, 20 mmol/L imidazole, 5% Glycerol, 500 mmol/L NaCl). Cell pellets were disrupted by high-pressure crusher (JNBIO, Guangzhou China) and centrifuged (4 °C, 12000 rpm, for 20 min). Supernatant was collected and purified by FPLC with a 1 mL Ni–NTA Sepharose column (GE Healthcare, Stamford, USA). The SIRT6 protein was eluted at containing 50 mM, 100 mM, 150 mM, 200 mM, and 500 mM imidazole in elution buffer. The purified SIRT6 protein was dialyzed in dialysis buffer (50 mM Tris-HCl, 137 mM NaCl, 2.7 mM KCl, 1 mM MgCl2). The purified SIRT6 protein was analyzed by SDS-PAGE.
Fluor-De-Lys (FDL) assays were used for the examination of the deacetylation activities of sirtuins as described previously. For the detection of SIRT6 activity, the 50-μL reaction mixture contained 5 μM SIRT6, 2.5 mM NAD^+ (β-Nicotinamide adenine dinucleotide hydrate, Sigma, N1636), 75 μM RHKK-Ac-AMC (GL Biochem, Shanghai), compounds/DMSO, and assay buffer. The reactions were incubated at 37 °C for 2 h, added 50 μL stop solution (40 mM nicotinamide, 6 mg/mL trypsin) at 25 °C for 30 min. Fluorescence intensity was measured at an excitation wavelength of 360 nm and an emission wavelength of 460 nm. IC50 values were calculated in GraphPad Prism version 8.00.

In assay [2] the target is T1, SIRT6. More on the design: endogenous in cells; host or cells: HeLa. The note with it: cited from earlier work.
The subject of a further assay is BXPC-3 cells. The assay can be described thus: γ-H2AX DNA damage (immunofluorescence, western blot). The format is cell-based. The note with it: BXPC-3, 10 nM gemcitabine, 6.25 μM 8a or combination, 24 h. The procedure: Cells were harvested and lysed in a lysis buffer (solarbio, R0010) supplementing 1 mM PMSF and protease inhibitor (TargetMol, USA). […] Then, the membranes were detected by Tanon 5200 (Tanon, Beijing, China). […]
On the technique in general: A western blot detects proteins with antibodies after separation by electrophoresis.

The test system of the next assay is BXPC-3 xenografts. The assay can be described thus: BXPC-3 tumor xenograft in nude mice. The format is in vivo, BALB/c nude mice. The note with it: gemcitabine 10 mg/kg i.p. once every 2 days for 4 weeks. The procedure: Female BALB/c nude mice (14 ± 2 g, 4 weeks old) were purchase. About 2 × 10^6 of BXPC-3 cells were inoculated into nude mouse flanks. When the tumor volume reached approximately 100 mm^3, mice were randomly divided into four groups with six mice per group before treatment and then treated with vehicle, 8a (20 mg/kg), gemcitabine (10 mg/kg) and their combination every 2 days. Tumor volumes and body weight were measured every 3 days, and use the formula to calculate the tumor volume: V = (L × W × W)/2 (V, tumor volume; L, length; and W, width). Mice were sacrificed and tumor tissues were removed. Tumor tissues were fixed with paraformaldehyde (4%) and embedded with paraffin.
To further confirm whether 8a can enhance the antitumor effects of gemcitabine in vivo, the BXPC-3 PDAC xenografts were used. The mice with tumors received intraperitoneal injection of compound 8a (20 mg/kg), gemcitabine (10 mg/kg), or their combination once every 2 days for 4 weeks. Tumor volumes and body weight of mice were monitored every 3 days.

T1 sequence (Q8N6T7 whole entry): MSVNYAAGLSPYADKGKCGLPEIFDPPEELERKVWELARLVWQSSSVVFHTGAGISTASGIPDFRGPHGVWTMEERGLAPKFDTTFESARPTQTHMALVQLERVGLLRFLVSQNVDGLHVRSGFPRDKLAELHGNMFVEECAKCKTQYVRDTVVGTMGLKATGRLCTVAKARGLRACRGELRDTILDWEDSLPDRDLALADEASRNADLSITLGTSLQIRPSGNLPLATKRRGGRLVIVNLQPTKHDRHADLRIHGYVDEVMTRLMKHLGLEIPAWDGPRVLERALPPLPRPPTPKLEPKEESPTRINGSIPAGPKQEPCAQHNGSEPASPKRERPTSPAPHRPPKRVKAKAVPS

In the case of `O=C(O)C(F)(F)F.O=C1c2ccccc2C(=O)N1CCCCCCn1cnc2c(-c3cc(Br)c(Br)[nH]3)nccc21` [Compound 10c], the “Inhibition rate (%)” value at SIRT6 [1] was determined as 6.4%.

The term inhibition denotes the drop in the measured response relative to a control, in per cent. Turning to `BrCCCCCCn1c(-c2nccc3c2ncn3CCCCCCBr)cc(Br)c1Br` [Compound 11a], the inhibition at 25 µM on SIRT6 [1] was less than 0%.

For `Brc1cc(-c2nccc3c2ncn3CCCCCCN2CCCCC2)[nH]c1Br.O=C(O)C(F)(F)F` [Compound 10d], at SIRT6 [1], the “Inhibition rate (%)” value came out at 16.7%.

As for `Cn1c(-c2nccc3[nH]cnc23)cc(Br)c1Br` [Compound 1c], the inhibition at 25 µM at SIRT6 [1] turned out to be 3.7%.

With `Brc1cc(-c2nccc3[nH]cnc23)[nH]c1Br.O=C(O)C(F)(F)F` [Compound 2a], at SIRT6 [1], the “Inhibition rate (%)” value came out at 4.1%.

What is called IC50 is the concentration that gives 50% inhibition. `O=C(Nc1ccc(O)c(C(=O)O)c1)c1cccc(NC(=O)c2ccco2)c1` [OSS_128167]: the IC50 on SIRT6 [2] was 89 µM.

With `Nc1ccn([C@@H]2O[C@H](CO)[C@@H](O)C2(F)F)c(=O)n1` [gemcitabine], the γ-H2AX foci entry in the assay with BXPC-3 cells was “can cause γ-H2AX foci”. Besides, the tumor mass inhibition in the assay with BXPC-3 xenografts came to 30.1%.

As to `BrCCCCCCn1cnc2c(-c3cc(Br)c(Br)[nH]3)nccc21.O=C(O)C(F)(F)F` [Compound 4a], the “Inhibition rate (%)” value at SIRT6 [1] came out at 5.3%.

As to `Brc1cc(-c2nccc3c2ncn3CCCCCCN2CCOCC2)n(CCCCCCN2CCOCC2)c1Br` [Compound 11b], the “Inhibition rate (%)” value on SIRT6 [1] is on record as 23.8%.
